Reference: US20240010640A1, “ANTAGONISTS OF THE MUSCARINIC ACETYLCHOLINE RECEPTOR M4” (Vanderbilt University, priority 2020, published 2024)

Molecular target: T1, Human M4 (Homo sapiens, UniProt P08173)
T1 construct: Human or rat M4 cDNA, along with the chimeric G protein Gqi5, were transfected into Chinese hamster ovary (CHO-K1) cells; expressed in transfected cells; host or cells: CHO-K1 (Chinese hamster ovary, ATCC), stably expressing M4 and Gqi5
T1 sequence (P08173 1-479): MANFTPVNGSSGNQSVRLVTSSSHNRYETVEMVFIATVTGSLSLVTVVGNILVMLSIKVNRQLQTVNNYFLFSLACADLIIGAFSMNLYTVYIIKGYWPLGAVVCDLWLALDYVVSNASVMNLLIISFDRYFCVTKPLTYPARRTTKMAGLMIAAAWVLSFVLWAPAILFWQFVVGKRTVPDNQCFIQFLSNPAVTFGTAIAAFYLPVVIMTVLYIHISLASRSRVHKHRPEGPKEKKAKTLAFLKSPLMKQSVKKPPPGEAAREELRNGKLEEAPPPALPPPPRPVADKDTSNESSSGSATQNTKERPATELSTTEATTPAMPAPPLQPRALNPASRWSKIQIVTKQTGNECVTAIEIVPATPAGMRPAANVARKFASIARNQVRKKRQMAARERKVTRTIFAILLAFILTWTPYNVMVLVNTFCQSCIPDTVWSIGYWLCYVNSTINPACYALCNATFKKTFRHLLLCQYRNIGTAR
Assay: mAChR M4 cell-based functional assay (calcium flux, antagonist mode)
Details: for IC50: Human M4/Gqi5 CHO-K1 cells, decrease of acetylcholine response; for Emin (% ACh maximum at 30 μM): Human M4
Protocol: Human or rat M4 cDNA, along with the chimeric G protein Gqi5, were transfected into Chinese hamster ovary (CHO-K1) cells purchased from the American Type Culture Collection using Lipofectamine2000. M4/Gqi5/CHO cells were grown in Ham's F-12 medium containing 10% heat-inactivated fetal bovine serum (FBS), 20 mM HEPES, 500 μg/mL G418 sulfate, and 200 μg/mL Hygromycin B.
For high throughput measurement of agonist-evoked increases in intracellular calcium, CHO-K1 cells stably expressing muscarinic receptors were plated in growth medium lacking G418 and hygromycin at 15,000 cells/20 μL/well in Greiner 384-well black-walled, tissue culture (TC)-treated, clear-bottom plates (VWR). Cells were incubated overnight at 37° C. and 5% CO2. The next day, cells were washed using an ELX 405 (BioTek) with assay buffer; the final volume was then aspirated to 20 μL. Next, 20 μL of a 2.3 μM stock of Fluo-4/acetoxymethyl ester (Invitrogen, Carlsbad, CA), prepared as a 2.3 mM stock in DMSO and mixed in a 1:1 ratio with 10% (w/v) Pluronic F-127 and diluted in assay buffer, was added to the wells and the cell plates were incubated for 50 min at 37° C. and 5% CO2. Dye was removed by washing with the ELX 405 and the final volume was aspirated to 20 μL. Compound master plates were formatted in a 10 point concentration-response curve (CRC) format (1:3 dilutions) in 100% DMSO with a starting concentration of 10 or 1 mM using a BRAVO liquid handler (Agilent). Test compound CRCs were then transferred to daughter plates (240 nL) using the Echo acoustic plate reformatter (Labcyte, Sunnyvale, CA) and then diluted into assay buffer (40 μL) to a 2× stock using a Thermo Fisher Combi (Thermo Fisher Scientific, Waltham, MA).
Calcium flux was measured using the Functional Drug Screening System (FDSS) 6000 or 7000 (Hamamatsu Corporation, Tokyo, Japan) as an increase in the fluorescent static ratio. Compounds were applied to cells (20 μL, 2×) using the automated system of the FDSS at 2 seconds into the protocol and the data were collected at 1 Hz. At 143 s, 10 μL of an EC20 concentration of the muscarinic receptor agonist acetylcholine was added (5×), followed by the addition of 12 μL of an […] concentration of acetylcholine at the 268 s time point (5×). Agonist activity was analyzed as a concentration-dependent increase in calcium mobilization upon compound addition. Positive allosteric modulator activity was analyzed as a concentration-dependent increase in the EC20 acetylcholine response. Antagonist activity was analyzed as a concentration-dependent decrease in the EC80 acetylcholine response; for the purposes of the tables herein, an IC50 (inhibitory concentration 50) was calculated as a concentration-dependent decrease of the response elicited by an […] concentration of acetylcholine. Concentration-response curves were generated using a four-parameter logistical equation in XLFit curve fitting software (IDBS, Bridgewater, NJ) for Excel (Microsoft, Redmond, WA) or Prism (GraphPad Software, Inc., San Diego, CA) or the Dotmatics software platform (Dotmatics, Bishop's Stortford, UK).
Compounds were synthesized as described above. Activity (IC50 and Emin) was determined in the mAChR M4 cell-based functional assay as described above and the data are shown in Table 1.

| SMILES | IC50 | Emin (% ACh maximum at 30 μM) |
| --- | --- | --- |
| Cn1cc(-c2ccc(N[C@H]3C[C@@H]4CN(CC5CCOCC5)C[C@@H]4C3)nn2)cc(F)c1=O [A17, 3-fluoro-1-methyl-5-(6-(((3aR,5s,6aS)-2-((tetrahydro-2H-pyran-4-yl)methyl)octahydrocyclopenta[c]pyrrol-5-yl)amino)pyridazin-3-yl)pyridin-2(1H)-one] | 13 nM | 3% |
| O=c1ccc(-c2ccc(N[C@H]3C[C@@H]4CN(CC5CCOCC5)C[C@@H]4C3)nn2)cn1CC1CC1 [A15, 1-(cyclopropylmethyl)-5-(6-(((3aR,5s,6aS)-2-((tetrahydro-2H-pyran-4-yl)methyl)octahydrocyclopenta[c]pyrrol-5-yl)amino)pyridazin-3-yl)pyridin-2(1H)-one] | 19.6 nM | 4% |
| Cn1cc(-c2ccc(N[C@H]3C[C@@H]4CN(Cc5ccccn5)C[C@@H]4C3)nn2)ccc1=O [A12, 1-methyl-5-(6-(((3aR,5s,6aS)-2-(pyridin-2-ylmethyl)octahydrocyclopenta[c]pyrrol-5-yl)amino)pyridazin-3-yl)pyridin-2(1H)-one] | 762 nM | 9% |
| [2H]C([2H])(C1CCOCC1)N1C[C@H]2C[C@H](Nc3ccc(-c4ccc(=O)n(C)c4)nn3)C[C@H]2C1 [A2, 1-methyl-5-(6-(((3aR,5s,6aS)-2-((tetrahydro-2H-pyran-4-yl)methyl-d2)octahydrocyclopenta[c]pyrrol-5-yl)amino)pyridazin-3-yl)pyridin-2(1H)-one] | 34 nM | 4% |
| Cn1cccc(-c2cnc(N[C@H]3C[C@@H]4CN(CC5CCOCC5)C[C@@H]4C3)nc2)c1=O [B1, 1-methyl-3-(2-(((3aR,5s,6aS)-2-((tetrahydro-2H-pyran-4-yl)methyl)octahydrocyclopenta[c]pyrrol-5-yl)amino)pyrimidin-5-yl)pyridin-2(1H)-one] | 3370 nM | 10% |
| Cn1cccc(-c2ccc(N[C@H]3C[C@@H]4CN(CC5CCOCC5)C[C@@H]4C3)nn2)c1=O [A4, 1-methyl-3-(6-(((3aR,5s,6aS)-2-((tetrahydro-2H-pyran-4-yl)methyl)octahydrocyclopenta[c]pyrrol-5-yl)amino)pyridazin-3-yl)pyridin-2(1H)-one] | 15.5 nM | 5% |
| Cn1cc(-c2ccc(N[C@H]3C[C@@H]4CN(CC5CCCOC5)C[C@@H]4C3)nn2)ccc1=O (stereo partly drawn) [A10, 1-methyl-5-(6-(((3aR,5s,6aS)-2-((tetrahydro-2H-pyran-3-yl)methyl)octahydrocyclopenta[c]pyrrol-5-yl)amino)pyridazin-3-yl)pyridin-2(1H)-one] | 129 nM | 4% |
| Cn1cc(C(F)(F)F)cc(-c2ccc(N[C@H]3C[C@@H]4CN(CC5CCOCC5)C[C@@H]4C3)nn2)c1=O [A9, 1-methyl-3-(6-(((3aR,5s,6aS)-2-((tetrahydro-2H-pyran-4-yl)methyl)octahydrocyclopenta[c]pyrrol-5-yl)amino)pyridazin-3-yl)-5-(trifluoromethyl)pyridin-2(1H)-one] | 27.4 nM | 4% |
| [2H]C([2H])(C1CCOCC1)N1C[C@H]2C[C@H](Nc3ccc(-c4cc(F)c(=O)n(C)c4)nn3)C[C@H]2C1 [A18, 3-fluoro-1-methyl-5-(6-(((3aR,5s,6aS)-2-((tetrahydro-2H-pyran-4-yl)methyl-d2)octahydrocyclopenta[c]pyrrol-5-yl)amino)pyridazin-3-yl)pyridin-2(1H)-one] | 11.4 nM | 4% |
| [2H]C([2H])(C1CCOCC1)N1C[C@H]2C[C@H](Nc3ccc(-c4ccn(C)c(=O)c4)nn3)C[C@H]2C1 [A1, 1-methyl-4-(6-(((3aR,5s,6aS)-2-((tetrahydro-2H-pyran-4-yl)methyl-d2)octahydrocyclopenta[c]pyrrol-5-yl)amino)pyridazin-3-yl)pyridin-2(1H)-one] | 81 nM | 5% |
| Cn1cc(-c2ccc(N[C@H]3C[C@@H]4CN(CC5CCOCC5)C[C@@H]4C3)nn2)cnc1=O [A7, 1-methyl-5-(6-(((3aR,5s,6aS)-2-((tetrahydro-2H-pyran-4-yl)methyl)octahydrocyclopenta[c]pyrrol-5-yl)amino)pyridazin-3-yl)pyrimidin-2(1H)-one] | 514 nM | 7% |

Stronger by IC50, values ahead:

| IC50 | Emin (% ACh maximum at 30 μM) | SMILES |
| --- | --- | --- |
| 1 nM | 3% | Cn1cc(-c2ccc(N[C@H]3C[C@@H]4CN(CCC(C)(C)C)C[C@@H]4C3)nn2)ccc1=O [A13, 5-(6-(((3aR,5s,6aS)-2-(3,3-dimethylbutyl)octahydrocyclopenta[c]pyrrol-5-yl)amino)pyridazin-3-yl)-1-methylpyridin-2(1H)-one] |
| 3.8 nM | 4% | O=c1ccc(-c2ccc(N[C@H]3C[C@@H]4CN(CC5CCOCC5)C[C@@H]4C3)nn2)cn1C(F)F [A5, 1-(difluoromethyl)-5-(6-(((3aR,5s,6aS)-2-((tetrahydro-2H-pyran-4-yl)methyl)octahydrocyclopenta[c]pyrrol-5-yl)amino)pyridazin-3-yl)pyridin-2(1H)-one] |
| 1.9 nM | 4% | Cc1cc(-c2ccc(N[C@H]3C[C@@H]4CN(CC5CCOCC5)C[C@@H]4C3)nn2)cn(C)c1=O [A16, 1,3-dimethyl-5-(6-(((3aR,5s,6aS)-2-((tetrahydro-2H-pyran-4-yl)methyl)octahydrocyclopenta[c]pyrrol-5-yl)amino)pyridazin-3-yl)pyridin-2(1H)-one] |
| 3.5 nM | 3% | Cn1cc(-c2ccc(N[C@H]3C[C@@H]4CN(CC5CCCCC5)C[C@@H]4C3)nn2)ccc1=O [A11, 5-(6-(((3aR,5s,6aS)-2-(cyclohexylmethyl)octahydrocyclopenta[c]pyrrol-5-yl)amino)pyridazin-3-yl)-1-methylpyridin-2(1H)-one] |
| 5.9 nM | 9% | O=c1cc(-c2ccc(N[C@H]3C[C@@H]4CN(CC5CCOCC5)C[C@@H]4C3)nn2)ccn1C(F)F [A6, 1-(difluoromethyl)-4-(6-(((3aR,5s,6aS)-2-((tetrahydro-2H-pyran-4-yl)methyl)octahydrocyclopenta[c]pyrrol-5-yl)amino)pyridazin-3-yl)pyridin-2(1H)-one] |
| 5.9 nM | 4% | [2H]C([2H])(C1CCOCC1)N1C[C@H]2C[C@H](Nc3ccc(-c4cccn(C)c4=O)nn3)C[C@H]2C1 [A3, 1-methyl-3-(6-(((3aR,5s,6aS)-2-((tetrahydro-2H-pyran-4-yl)methyl-d2)octahydrocyclopenta[c]pyrrol-5-yl)amino)pyridazin-3-yl)pyridin-2(1H)-one] |
